This experiment deals with T1, human full-length MKNK1 (Homo sapiens, UniProt Q9BUB5, T385D).
T1 construct: GST (N); purchased Carna Biosciences 02-145; host or cells: insect cells (baculovirus expression system)
T1 sequence (Q9BUB5 1-424 isoform Q9BUB5-2 T344D): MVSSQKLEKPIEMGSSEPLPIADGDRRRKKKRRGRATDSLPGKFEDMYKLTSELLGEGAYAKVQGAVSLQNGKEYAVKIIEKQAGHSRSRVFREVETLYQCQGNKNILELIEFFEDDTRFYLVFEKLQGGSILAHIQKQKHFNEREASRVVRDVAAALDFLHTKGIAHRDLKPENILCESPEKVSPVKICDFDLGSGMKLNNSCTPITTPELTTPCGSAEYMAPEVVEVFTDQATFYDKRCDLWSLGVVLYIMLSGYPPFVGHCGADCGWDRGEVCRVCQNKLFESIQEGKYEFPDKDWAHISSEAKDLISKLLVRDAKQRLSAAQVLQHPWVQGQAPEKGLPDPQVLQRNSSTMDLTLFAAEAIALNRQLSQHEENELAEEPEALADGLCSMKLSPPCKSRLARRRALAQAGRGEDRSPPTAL
In words: MKNK1 kinase high ATP assay (TR-FRET). To be noted: high ATP (2 mM final), 15 min preincubation with enzyme, GST-MKNK1 (T344D). The class given is biochemical. As to the method: MKNK1 Kinase High ATP Assay
MKNK1-inhibitory activity at high ATP of compounds of the present invention after their preincubation with MKNK1 was quantified employing the TR-FRET-based MKNK1 high ATP assay as described in the following paragraphs.
A recombinant fusion protein of Glutathione-S-Transferase (GST, N-terminally) and human full-length MKNK1 (amino acids 1-424 and T344D of accession number BAA 19885.1), expressed in insect cells using baculovirus expression system and purified via glutathione sepharose affinity chromatography, was purchased from Carna Biosciences (product no 02-145) and used as enzyme. As substrate for the kinase reaction the biotinylated peptide biotin-Ahx-IKKRKLTRRKSLKG (C-terminus in amide form) was used, which can be purchased e.g. from the company Biosyntan (Berlin-Buch, Germany).
For the assay 50 nL of a 100 fold concentrated solution of the test compound in DMSO was pipetted into a black low volume 384 well microtiter plate (Greiner Bio-One, Frickenhausen, Germany), 2 μL of a solution of MKNK1 in aqueous assay buffer [50 mM HEPES pH 7.5, 5 mM MgCL2, 1.0 mM dithiothreitol, 0.005% (v/v) Nonidet-P40 (Sigma)] was added and the mixture was incubated for 15 min at 22° C. to allow pre-binding of the test compounds to the enzyme before the start of the kinase reaction. Then the kinase reaction was started by the addition of 3 μL of a solution of adenosine-tri-phosphate (ATP, 3.3 mM=>final conc. in the 5 μL assay volume is 2 mM) and substrate (0.1 μM=>final conc. in the 5 μL assay volume is 0.06 μM) in assay buffer and the resulting mixture was incubated for a reaction time of 30 min at 22° C. The concentration of MKNK1 was adjusted depending of the activity of the enzyme lot and was chosen appropriate to have the assay in the linear range, typical concentrations were in the range of 0.003 μg/mL. The reaction was stopped by the addition of 5 μL of a solution of TR-FRET detection reagents (5 nM streptavidine-XL665 [Cisbio Bioassays, Codolet, France] and 1 nM anti-ribosomal protein S6 (pSer236)-antibody from Invitrogen [#44921G] and 1 nM LANCE EU-W1024 Labeled ProteinG [Perkin-Elmer, product no. AD0071]) in an aqueous EDTA-solution (100 mM EDTA, 0.1% (w/v) bovine serum albumin in 50 mM HEPES pH 7.5).
The resulting mixture was incubated for 1 h at 22° C. to allow the formation of complex between the phosphorylated biotinylated peptide and the detection reagents. Subsequently the amount of phosphorylated substrate was evaluated by measurement of the resonance energy transfer from the Eu-chelate to the streptavidine-XL. Therefore, the fluorescence emissions at 620 nm and 665 nm after excitation at 350 nm were measured in a TR-FRET reader, e.g. a Rubystar (BMG Labtechnologies, Offenburg, Germany) or a Viewlux (Perkin-Elmer). The ratio of the emissions at 665 nm and at […] was taken as the measure for the amount of phosphorylated substrate. The data were normalised (enzyme reaction without inhibitor=0% inhibition, all other assay components but no enzyme=100% inhibition).
The term IC50 denotes the concentration needed to halve the response being measured. Higher therefore signals a need for much substance. `CCCc1[nH]c2ncnc(Nc3cc4sc(=O)[nH]c4cc3OC)c2c1CC` [Example 29, 6-[(5-Ethyl-6-propyl-7H-pyrrolo[2,3-d]pyrimidin-4-yl)amino]-5-methoxy-1,3-benzothiazol-2(3H)-one] returned an IC50 of 5 nM. For `C[C@H]1COCCN1C(=O)c1cc2c(Nc3ccc4[nH]c(=O)sc4c3)ncnc2[nH]1` [Example 35], the IC50 is 47 nM. To `Cc1c[nH]c2ncnc(Nc3ccc4[nH]c(=O)sc4c3)c12` [Example 15, 6-[(5-Methyl-7H-pyrrolo[2,3-d]pyrimidin-4-yl)amino]-1,3-benzothiazol-2(3H)-one] belongs 9 nM; to `Cc1cc2c(Nc3ccc4[nH]c(=O)sc4c3)ncnc2[nH]1` [Example 14, 6-[(6-Methyl-7H-pyrrolo[2,3-d]pyrimidin-4-yl)amino]-1,3-benzothiazol-2(3H)-one], 25 nM. As to `O=C(c1cc2c(Nc3ccc4[nH]c(=O)sc4c3)ncnc2[nH]1)N1CCCCC1` [Example 36, 6-{[6-(Piperidin-1-ylcarbonyl)-7H-pyrrolo[2,3-d]pyrimidin-4-yl]amino}-1,3-benzothiazol-2(3H)-one], the IC50 was 14 nM. The value for `O=c1[nH]c2ccc(Nc3ncnc4[nH]c(Br)cc34)cc2s1` [Example 8, 6-[(6-Bromo-7H-pyrrolo[2,3-d]pyrimidin-4-yl)amino]-1,3-benzothiazol-2(3H)-one] was 5 nM. The value for `COc1cc2[nH]c(=O)sc2cc1Nc1ncnc2[nH]c(Br)cc12` [Example 18, 6-[(6-Bromo-7H-pyrrolo[2,3-d]pyrimidin-4-yl)amino]-5-methoxy-1,3-benzothiazol-2(3H)-one] was 18 nM; that for `O=c1[nH]c2ccc(Nc3ncnc4[nH]cnc34)cc2s1` [Example 9, 6-(9H-Purin-6-ylamino)-1,3-benzothiazol-2(3H)-one] was 11 nM. For the molecule `O=C(O)c1c[nH]c2ncnc(Nc3ccc4[nH]c(=O)sc4c3)c12` [Example 3, 4-[(2-Oxo-2,3-dihydro-1,3-benzothiazol-6-yl)amino]-7H-pyrrolo[2,3-d]pyrimidine-5-carboxylic acid], the IC50 came to 7 nM. Compared with the last molecule, the IC50 is about 1.6-fold lower. The value for `CCc1[nH]c2ncnc(Nc3ccc4[nH]c(=O)sc4c3)c2c1C` [Example 1, 6-[(6-Ethyl-5-methyl-7H-pyrrolo[2,3-d]pyrimidin-4-yl)amino]-1,3-benzothiazol-2(3H)-one] was 27 nM; that for `O=c1[nH]c2ccc(Nc3ncnc4[nH]ccc34)cc2s1` [Example 6, 6-(7H-Pyrrolo[2,3-d]pyrimidin-4-ylamino)-1,3-benzothiazol-2(3H)-one] was 19 nM.

As to `COc1cc2[nH]c(=O)sc2cc1Nc1ncnc2[nH]cc(F)c12` [Example 28, 6-[(5-Fluoro-7H-pyrrolo[2,3-d]pyrimidin-4-yl)amino]-5-methoxy-1,3-benzothiazol-2(3H)-one], the IC50 came to 1 nM. Regarding `O=c1[nH]c2ccc(Nc3ncnc4[nH]c(C#CCO)cc34)cc2s1` [Example 11, 6-{[6-(3-Hydroxyprop-1-yn-1-yl)-7H-pyrrolo[2,3-d]pyrimidin-4-yl]amino}-1,3-benzothiazol-2(3H)-one], the IC50 was determined as 6 nM.

Regarding `N#Cc1c[nH]c2ncnc(Nc3ccc4[nH]c(=O)sc4c3)c12` [Example 12, 4-[(2-Oxo-2,3-dihydro-1,3-benzothiazol-6-yl)amino]-7H-pyrrolo[2,3-d]pyrimidine-5-carbonitrile], the IC50 worked out at 13 nM.

`O=C(O)c1cc2c(Nc3ccc4[nH]c(=O)sc4c3)ncnc2[nH]1` [Example 30, 4-[(2-Oxo-2,3-dihydro-1,3-benzothiazol-6-yl)amino]-7H-pyrrolo[2,3-d]pyrimidine-6-carboxylic acid]: the IC50 is 36 nM. Consider `O=c1[nH]c2ccc(Nc3ncnc4[nH]cc(F)c34)cc2s1` [Example 2, 6-[(5-Fluoro-7H-pyrrolo[2,3-d]pyrimidin-4-yl)amino]-1,3-benzothiazol-2(3H)-one], for which it took 27 nM to reach half-maximal inhibition (IC50). The value for `CCOC(=O)c1cc2c(Nc3cc4sc(=O)[nH]c4cc3OC)ncnc2[nH]1` [Example 25, Ethyl 4-[(5-methoxy-2-oxo-2,3-dihydro-1,3-benzothiazol-6-yl)amino]-7H-pyrrolo[2,3-d]pyrimidine-6-carboxylate] was 4 nM; that for `O=C(c1[nH]c2ncnc(Nc3ccc4[nH]c(=O)sc4c3)c2c1Br)N1CCCCC1` [Example 33, 6-{[5-Bromo-6-(piperidin-1-ylcarbonyl)-7H-pyrrolo[2,3-d]pyrimidin-4-yl]amino}-1,3-benzothiazol-2(3H)-one] was 24 nM. To `O=c1[nH]c2ccc(Nc3ncnc4[nH]c(Cl)cc34)cc2s1` [Example 16, 6-[(6-Chloro-7H-pyrrolo[2,3-d]pyrimidin-4-yl)amino]-1,3-benzothiazol-2(3H)-one] belongs 11 nM; to `CN1CCN(C(=O)c2c[nH]c3ncnc(Nc4ccc5[nH]c(=O)sc5c4)c23)CC1` [Example 4, 6-({5-[(4-Methylpiperazin-1-yl)carbonyl]-7H-pyrrolo[2,3-d]pyrimidin-4-yl}amino)-1,3-benzothiazol-2(3H)-one], 19 nM. `CCc1[nH]c2ncnc(Nc3cc4sc(=O)[nH]c4cc3OC)c2c1C` [Example 13, 6-[(6-Ethyl-5-methyl-7H-pyrrolo[2,3-d]pyrimidin-4-yl)amino]-5-methoxy-1,3-benzothiazol-2(3H)-one]: the 50% inhibitory concentration (IC50) stood at 6 nM. This IC50 lies about 3.2-fold lower than the previous one. The value for `CN(C)C(=O)c1c[nH]c2ncnc(Nc3ccc4[nH]c(=O)sc4c3)c12` [Example 20, N,N-dimethyl-4-[(2-oxo-2,3-dihydro-1,3-benzothiazol-6-yl)amino]-7H-pyrrolo[2,3-d]pyrimidine-5-carboxamide] was 15 nM.

Turning to `CC(C)NC(=O)c1c[nH]c2ncnc(Nc3ccc4[nH]c(=O)sc4c3)c12` [Example 5, N-Isopropyl-4-[(2-oxo-2,3-dihydro-1,3-benzothiazol-6-yl)amino]-7H-pyrrolo[2,3-d]pyrimidine-5-carboxamide], the IC50 worked out at 4 nM. To `O=c1[nH]c2ccc(Nc3ncnc4[nH]c(S(=O)(=O)c5ccc(Cl)cc5)cc34)cc2s1` [Example 23, 6-({6-[(4-Chlorophenyl)sulfonyl]-7H-pyrrolo[2,3-d]pyrimidin-4-yl}amino)-1,3-benzothiazol-2(3H)-one] belongs 12 nM; to `O=C(c1cc2c(Nc3ccc4[nH]c(=O)sc4c3)ncnc2[nH]1)N1CCOCC1` [Example 32, 6-{[6-(Morpholin-4-ylcarbonyl)-7H-pyrrolo[2,3-d]pyrimidin-4-yl]amino}-1,3-benzothiazol-2(3H)-one], 20 nM; to `O=c1[nH]c2ccc(Nc3ncnc4[nH]cc(Br)c34)cc2s1` [Example 27, 6-[(5-Bromo-7H-pyrrolo[2,3-d]pyrimidin-4-yl)amino]-1,3-benzothiazol-2(3H)-one], 6 nM.

The molecule `Cc1ccc(S(=O)(=O)c2cc3c(Nc4ccc5[nH]c(=O)sc5c4)ncnc3[nH]2)cc1` [Example 24, 6-({6-[(4-Methylphenyl)sulfonyl]-7H-pyrrolo[2,3-d]pyrimidin-4-yl}amino)-1,3-benzothiazol-2(3H)-one] returned an IC50 of 5 nM. Turning to `CC(C)Cc1[nH]c2ncnc(Nc3ccc4[nH]c(=O)sc4c3)c2c1C(C)C` [Example 21, 6-[(6-Isobutyl-5-isopropyl-7H-pyrrolo[2,3-d]pyrimidin-4-yl)amino]-1,3-benzothiazol-2(3H)-one], the IC50 stood at 32 nM. For `COc1cc2[nH]c(=O)sc2cc1Nc1ncnc2[nH]c(C(=O)O)cc12` [Example 26, 4-[(5-Methoxy-2-oxo-2,3-dihydro-1,3-benzothiazol-6-yl)amino]-7H-pyrrolo[2,3-d]pyrimidine-6-carboxylic acid], the midpoint of inhibition, the IC50, lay at 21 nM.

Molecule `O=c1[nH]c2ccc(Nc3ncnc4[nH]c(CCCO)cc34)cc2s1` [Example 17, 6-{[6-(3-Hydroxypropyl)-7H-pyrrolo[2,3-d]pyrimidin-4-yl]amino}-1,3-benzothiazol-2(3H)-one] registered an IC50 of 9 nM. To `O=c1[nH]c2ccc(Nc3ncnc4[nH]ncc34)cc2s1` [Example 7, 6-(1H-pyrazolo[3,4-d]pyrimidin-4-ylamino)-1,3-benzothiazol-2(3H)-one] belongs 44 nM.
